This assay concerns Powdery mildew. Briefly: Powdery mildew on whole Bell pepper plants. The assay is classed as in vivo. The settings on record: 1000 spores, evaluated every 24 hours for 3 days. How it is done:
Bell pepper plants where obtained at 4 weeks, replanted and acclimatized (22-28° C., 16 hour light). • ii. Plants where divided between treated plants: present formulation/active agent (thyme oil 0.1%)+Soap, negative control plants (no active fungicide) and a positive control (Penconazole, Ophir 2000). The plants were treated on 4 leafs, at 6 places on each leaf, with a solution containing 1000 spores. Infected plants were preserved in a moist environment. • iii. Fungi infestation was evaluated every 24 hours for 3 days: • i. Treated: 55% of leafs where infected; • ii. Negative control: 97.5 of leafs where infected • iii. Positive control: 40% of leafs where infected

The values below come from patent publication US20220304302A1, “MUCILAGE BASED PLANT PROTECTION PRODUCT AND METHOD THEREOF” (BOTANOHEALTH LTD., priority 2019, published 2022).

Structures are written as SMILES.

The compound `CCCC(Cn1cncn1)c1ccc(Cl)cc1Cl` (stereo not shown) [Penconazole] gave a leafs infected of 40%.
